Assay results taken from patent publication US10166239B2, “Tropomyosin-related kinase (Trk) inhibitors” (Genzyme Corporation, priority 2013, dated 2019).

Key:
[1] = tested on: Reactivated Peptidoglycan-Polysaccharide Knee Arthritis; experiment: Reactivated peptidoglycan-polysaccharide (PGPS) knee arthritis; format: in vivo, Male Lewis rats; conditions: for gait scores, second reactivation: intra-articular dose on day −7 (Triamcinolone 0.06 mg: day 15, 17, 18; test compound 1 mg: throughout second reactivation); for gait deficiency, second reactivation / gait scores and deficiency, first reactivation: intra-articular dose on day −7 (Triamcinolone 0.06 mg; test compound 1 mg); for gait deficiency, second reactivation: days 15, 17 and 18; for gait scores and deficiency, first reactivation: first reactivation (days 1-4)
Text: Male Lewis rats were acclimated to the testing facility for 7 days. The rats were housed in 5 per cage in shoe-box polycarbonate cages with wire tops, wood chip bedding and suspended food and water bottles. On day −21, the male Lewis rats were randomized into treatment groups by body weight. The rats were anesthetized and injected with peptidoglycan-polysaccharide (PGPS) into the right knee to induce PGPS arthritis. Arthritis was reactivated on days 0 and 14 by an IV tail injection of PGPS. […] The rats were weighed at baseline on days 0, 4, 14 and 18. […] Gait analysis was performed by applying ink to the ventral surface of the foot and documenting weight bearing during movement across paper. The animals were terminated at day 18. Right knees were removed, trimmed of extraneous tissue, and collected into 10% neutral buffered formalin. After two days in the formalin buffer and three days in 10% formic acid decalcifier, the knees were cut into two approximately equal halves in the frontal plane and processed for paraffin embedding and stained with T. Blue. Histological examinations were subsequently performed for bone resorption, inflammation, pannus and cartilage damage. […] Gait scores were analyzed using a Kruskal-Wallis test (non-parametric ANOVA) with Dunn's multiple comparison post-test. Histopathology scores were analyzed using a Kruskal-Wallis test (non-parametric ANOVA) with Dunn's multiple comparison post-test.

[2] = tested on: Monosodium Iodoacetate Induced Osteoarthritis; experiment: Monosodium iodoacetate (MIA) induced osteoarthritis; format: in vivo, Male Wistar rats
Text: Male Wistar rats were acclimated to the testing facility for 5 days. The rats were individually housed in micro-isolator shoe-box polycarbonate cages with cob bedding and water bottles. Dry pelleted food of known composition and nutritional components was provided ad libitum Animals were randomized by treatment type using an online random number generator. Each treatment group was assigned a number, entered into the random number generator, recorded then translated back to the associated treatment. All injections were given in the left leg unless the treatment indicated “Contralateral” in which case the injection was given in the right leg. Both legs were shaved on all animals at the time of the treatment injections to blind the test administrator. The rats were weighed the day prior to injection with monosodium iodoacetate (MIA), the agent used to induce osteoarthritis in the animals. The day of injection, rats from groups 2-8 received a subcutaneous (SC) dose of buprenorphine at least one hour prior to induction. […] Naïve animals were then placed in recovery. All other animals received an injection of MIA. In animals receiving MIA, the hind leg was flexed and an injection of MIA (25 μL) was injected into the intra-articular space using a 27 gauge ½ inch needle. Standard postoperative care was performed (twice daily for 48 hours). On Day 8 the test article was administered as described above. On Days −1, 7, 14, 21, 28, and 35 post-induction, weight bearing was assessed. A weight bearing scale was utilized using a plexiglass chamber to assess the amount of weight distributed in each hind limb. The animals were acclimated to the chamber for at least 5 minutes prior to testing and the weight distribution was recorded 5 times. The animals were terminated at day 36. Both stifles were collected from each animal; the skin was removed from the joint and the patella was removed while leaving as much of the fat pad intact with the joint. The stifle was placed in the appropriate cassette with rolled gauze to secure the stifle in the cassette and then placed into 4% Paraformaldehyde. These samples were examined histologically.

[3] = Triamcinolone 0.06 mg intra-articular

For `COc1ccc(COc2ccc(Cn3c(N)nc4cc(-c5cnn(C)c5)cnc43)cc2OC)cc1` [Ex. 3-15, 3-(3-Methoxy-4-((4-methoxybenzyl)oxy)benzyl)-6-(1-methyl-1H-pyrazol-4-yl)-3H-imidazo[4,5-b]pyridin-2-amine], the “AUC values of knee caliper measurements” value ([1]; 1 mg intra-articular) was “generally unaffected”, the “reduction of AUC values of gait scores and deficiency, first reactivation” value ([1]; 1 mg intra-articular) was 92-93% and the “reduction of AUC values of gait scores and deficiency, second reactivation” value ([1]; 1 mg intra-articular) was 85-86%. The Knee caliper measurements ([1]; 1 mg intra-articular, day 14 (just prior to the second reactivation)) was “significantly reduced on day 14”, the “gait scores, second reactivation” value [1] was “significantly reduced throughout the second reactivation” and the “gait deficiency, second reactivation” value [1] was “reductions in deficiency were significant”. For the same compound, the “gait scores and deficiency, first reactivation” value [1] was “significant reductions”, the “efficacy (weight bearing)” value ([2]; 10 μg Contralateral injection) was “efficacy at 3 and 4 weeks following administration” and the “efficacy (weight bearing)” value ([2]; 10 μg Ipsilateral injection) was “efficacy was observed at 2 through 4 weeks following administration”. For the same compound, the “efficacy (weight bearing)” value ([2]; 30 μg Contralateral injection) was “efficacy at only the 3 week timepoint”, the “efficacy (weight bearing)” value ([2]; 30 μg Ipsilateral injection) was “effective throughout the four weeks following administration” and the “systemic pain relief (weight bearing)” value ([2]; 100 μg Contralateral injection, 1-4 weeks) was “did not show systemic pain relief at any timepoint”. For the same compound, the “efficacy (weight bearing)” value ([2]; 100 μg Ipsilateral injection) was “effective throughout the four weeks following administration”, the “MIA/LRS compared with treatment (p<0.05)” value ([2]; Ipsilateral 100 μg and 30 μg, day 35) was “MIA/LRS was significantly worse” and the body weight results ([2]; intra-articular 10, 30, 100 μg on Day 8) was “No adverse observations”. The “Histopathology of the knee joint, adverse changes” value ([2]; stifles collected at day 36) was “no adverse changes”.
For `C[C@]12C=CC(=O)C=C1CC[C@H]1[C@@H]3C[C@@H](O)[C@](O)(C(=O)CO)[C@@]3(C)C[C@H](O)[C@@]12F` [Triamcinolone, reference compound], the “reduction of AUC values of gait scores and deficiency, each reactivation calculated separately” value [1, 3] was 74-99%, the “reduction of AUC values of gait scores and deficiency, summed” value [1, 3] was 88-92% and the “reductions in the AUC of knee caliper measurements” value [1, 3] was 53-106%. The Knee caliper measurements ([1]; Triamcinolone 0.06 mg intra-articular, days 0, 2, 4, 16 and 18) was “significantly reduced”, the “gait scores, second reactivation” value [1] was “significantly reduced” and the “gait deficiency, second reactivation” value [1] was “significantly reduced”. The “gait scores and deficiency, first reactivation” value [1] was “significantly reduced”.
